Converted amounts (≈) assume the structure as drawn.
What was measured:
Experiment in all cases: microbe, parasite or virus in culture
Format in all cases: cell-based
[1] = tested on: M. tuberculosis PT2 strain; settings: Mycobacterium tuberculosis, PT2STRAIN, read-out: MIC PT2
[2] = tested on: M. tuberculosis PT12 strain; settings: Mycobacterium tuberculosis, PT12STRAIN, read-out: MIC PT12
[3] = tested on: M. tuberculosis PT20 strain; settings: Mycobacterium tuberculosis, PT20STRAIN, read-out: MIC PT20

| SMILES | MIC [1] | MIC [2] | MIC [3] |
| --- | --- | --- | --- |
| Fc1ccc2[nH]ccc2c1 [Compound 1, 5-Fluoroindole] | 4.7 µM (≈ 0.635 µg/mL) | 4.7 µM (≈ 0.635 µg/mL) | 4.7 µM (≈ 0.635 µg/mL) |
| NNC(=O)c1ccncc1 [INH, isoniazid, reference compound] | – | 146 µM (≈ 20 µg/mL) | – |

From PMC11292626, “5-Fluoroindole Reduces the Bacterial Burden in a Murine Model of Mycobacterium tuberculosis Infection” (ACS Omega, 2024)
